Test results from ChEMBL document CHEMBL1201862, “PubChem BioAssay data set” (2004).
Activity calls are given as the source filed them.

Experiments:
[1] = target: NACHT, LRR and PYD domains-containing protein 3 (Homo sapiens, UniProt Q96P20); experiment: NALP3 inhibitors in yeast, dose response, luminescent (AID 488799); assay type: functional
Streptokinase A = target: T1, Streptokinase A (Streptococcus pyogenes serotype M1, UniProt P10520); experiment: viability-normalized secreted streptokinase activity reduction – plasminogen activation absorbance, OD405, dose response (AID 1914); assay type: functional, Streptococcus pyogenes M1 GAS;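 further: secreted streptokinase activity via plasminogen activation per viability signal from cell pellet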
T1 sequence (P10520 whole entry): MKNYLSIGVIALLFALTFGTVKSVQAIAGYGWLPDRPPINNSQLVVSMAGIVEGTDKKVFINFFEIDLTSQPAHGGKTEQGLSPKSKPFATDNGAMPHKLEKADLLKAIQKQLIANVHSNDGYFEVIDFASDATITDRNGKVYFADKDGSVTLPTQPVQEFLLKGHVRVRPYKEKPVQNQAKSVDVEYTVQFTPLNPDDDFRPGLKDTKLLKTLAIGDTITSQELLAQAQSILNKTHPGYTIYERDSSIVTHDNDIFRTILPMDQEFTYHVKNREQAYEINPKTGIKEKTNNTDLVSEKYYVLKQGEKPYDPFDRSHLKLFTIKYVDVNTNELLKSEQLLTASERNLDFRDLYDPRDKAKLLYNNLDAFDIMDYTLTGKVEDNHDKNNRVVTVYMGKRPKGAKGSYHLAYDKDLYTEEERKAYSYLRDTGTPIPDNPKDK

[2] = Trypanosoma cruzi growth suppression in host cells – NIH3T3 host cells, beta-gal luminescence, confirmation (AID 2044); assay type: functional, cell-based;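 further: intracellular parasites grown in NIH/3T3 mouse fibroblasts as host cells; luminescent beta-galactosidase reporter signal from transgenic T. cruzi replicating inside host cells; inhibitors lower the luminescence signal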
INS1 = experiment: INS-1E survival protection against cytokine death – cell-based, luminescence, retest, dose response (AID 449756); assay type: functional; conditions: Rattus norvegicus;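 further: cell death triggered by IL-1 beta plus TNF-alpha plus IFN-gamma mixture; protective hits raise ATP signal compared with cytokine alone wells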
Exodeoxyribonuclease V = target: T2, Exodeoxyribonuclease V (Escherichia coli (strain K12), UniProt P04993+P07648+P08394); experiment: RecBCD inhibition via phage-restricted bacterial growth – absorbance, V66 E. coli, mutant T4 phage, counter-screen for AddAB inhibitor project, dose response (AID 492957); assay type: functional, cell-based, Escherichia coli str. K-12 substr. MG1655
T2 sequence (P04993 whole entry): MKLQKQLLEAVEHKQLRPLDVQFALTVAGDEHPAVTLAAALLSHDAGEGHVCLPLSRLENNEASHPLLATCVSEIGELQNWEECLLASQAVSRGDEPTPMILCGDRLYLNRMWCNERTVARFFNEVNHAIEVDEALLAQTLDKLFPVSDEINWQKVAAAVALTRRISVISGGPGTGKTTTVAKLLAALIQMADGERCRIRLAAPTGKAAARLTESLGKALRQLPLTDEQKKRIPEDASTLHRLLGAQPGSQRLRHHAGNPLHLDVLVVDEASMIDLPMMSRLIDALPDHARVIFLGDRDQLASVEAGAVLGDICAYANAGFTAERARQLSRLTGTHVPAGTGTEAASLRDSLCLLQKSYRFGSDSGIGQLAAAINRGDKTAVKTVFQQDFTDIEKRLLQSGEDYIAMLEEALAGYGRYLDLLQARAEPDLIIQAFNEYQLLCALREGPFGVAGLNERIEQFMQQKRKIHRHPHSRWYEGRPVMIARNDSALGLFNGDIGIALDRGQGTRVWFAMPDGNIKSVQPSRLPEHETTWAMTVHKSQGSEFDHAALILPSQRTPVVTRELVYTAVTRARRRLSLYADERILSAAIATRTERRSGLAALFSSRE
T2 sequence (P07648 whole entry): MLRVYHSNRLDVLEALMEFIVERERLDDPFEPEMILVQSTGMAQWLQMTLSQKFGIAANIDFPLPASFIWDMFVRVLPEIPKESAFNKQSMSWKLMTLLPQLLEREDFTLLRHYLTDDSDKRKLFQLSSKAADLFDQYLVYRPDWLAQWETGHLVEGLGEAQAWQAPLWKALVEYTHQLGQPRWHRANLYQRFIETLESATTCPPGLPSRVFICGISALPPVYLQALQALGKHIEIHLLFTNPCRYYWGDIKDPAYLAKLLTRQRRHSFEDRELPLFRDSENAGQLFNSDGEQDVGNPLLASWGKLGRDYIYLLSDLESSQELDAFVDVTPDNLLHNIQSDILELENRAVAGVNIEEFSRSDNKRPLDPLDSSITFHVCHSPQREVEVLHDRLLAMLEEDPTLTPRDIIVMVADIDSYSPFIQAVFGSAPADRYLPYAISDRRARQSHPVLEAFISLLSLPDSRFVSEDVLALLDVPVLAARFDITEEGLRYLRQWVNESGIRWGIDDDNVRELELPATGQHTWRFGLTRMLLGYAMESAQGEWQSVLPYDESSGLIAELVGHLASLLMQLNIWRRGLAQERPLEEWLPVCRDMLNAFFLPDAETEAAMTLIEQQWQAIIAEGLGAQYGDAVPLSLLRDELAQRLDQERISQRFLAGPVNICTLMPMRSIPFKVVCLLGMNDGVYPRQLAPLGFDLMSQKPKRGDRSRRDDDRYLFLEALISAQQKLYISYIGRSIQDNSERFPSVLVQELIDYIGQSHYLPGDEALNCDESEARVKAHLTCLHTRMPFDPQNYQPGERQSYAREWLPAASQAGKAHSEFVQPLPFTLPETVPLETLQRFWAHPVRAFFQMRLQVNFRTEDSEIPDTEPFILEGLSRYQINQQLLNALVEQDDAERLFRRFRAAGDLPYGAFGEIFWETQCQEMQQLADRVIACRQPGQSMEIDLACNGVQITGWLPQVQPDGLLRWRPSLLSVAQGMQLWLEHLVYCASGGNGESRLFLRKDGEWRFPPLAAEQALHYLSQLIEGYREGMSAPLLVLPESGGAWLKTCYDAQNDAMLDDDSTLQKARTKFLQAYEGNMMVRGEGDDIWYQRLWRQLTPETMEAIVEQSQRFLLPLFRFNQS
T2 sequence (P08394 whole entry): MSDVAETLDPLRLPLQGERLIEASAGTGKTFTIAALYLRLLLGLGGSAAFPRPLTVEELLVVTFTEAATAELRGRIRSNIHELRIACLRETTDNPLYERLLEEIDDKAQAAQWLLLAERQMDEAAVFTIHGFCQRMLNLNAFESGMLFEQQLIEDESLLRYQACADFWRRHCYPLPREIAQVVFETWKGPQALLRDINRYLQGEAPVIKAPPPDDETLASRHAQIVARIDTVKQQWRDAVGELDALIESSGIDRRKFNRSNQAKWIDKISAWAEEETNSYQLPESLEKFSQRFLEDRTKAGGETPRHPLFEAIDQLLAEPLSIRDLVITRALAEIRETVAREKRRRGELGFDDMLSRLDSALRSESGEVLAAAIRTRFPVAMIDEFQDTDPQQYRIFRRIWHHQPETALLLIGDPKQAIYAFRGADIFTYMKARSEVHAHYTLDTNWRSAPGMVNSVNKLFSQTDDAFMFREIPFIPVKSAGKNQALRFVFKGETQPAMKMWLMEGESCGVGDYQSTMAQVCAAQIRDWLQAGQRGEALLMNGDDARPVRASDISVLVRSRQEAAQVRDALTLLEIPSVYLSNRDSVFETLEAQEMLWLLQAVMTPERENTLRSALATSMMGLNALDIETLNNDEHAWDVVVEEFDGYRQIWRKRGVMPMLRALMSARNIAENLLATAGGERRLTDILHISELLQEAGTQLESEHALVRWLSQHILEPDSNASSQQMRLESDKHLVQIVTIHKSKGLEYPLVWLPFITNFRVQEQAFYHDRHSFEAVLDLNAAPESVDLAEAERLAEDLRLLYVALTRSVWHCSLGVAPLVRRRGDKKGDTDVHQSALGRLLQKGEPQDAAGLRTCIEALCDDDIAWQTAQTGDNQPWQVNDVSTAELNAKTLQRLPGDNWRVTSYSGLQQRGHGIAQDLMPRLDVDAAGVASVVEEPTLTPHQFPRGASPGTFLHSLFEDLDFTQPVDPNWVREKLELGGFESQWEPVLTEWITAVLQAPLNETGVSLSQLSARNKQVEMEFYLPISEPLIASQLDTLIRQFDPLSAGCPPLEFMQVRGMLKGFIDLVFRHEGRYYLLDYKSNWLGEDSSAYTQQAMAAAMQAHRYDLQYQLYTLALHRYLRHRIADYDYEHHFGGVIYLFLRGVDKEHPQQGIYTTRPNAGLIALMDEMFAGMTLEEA

[3] = NIH3T3 cell viability loss – ATP luminescence, mouse fibroblasts, counter-screen, dose response (AID 2010); assay type: functional, cell-based;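 further: cells exposed to compound for about 90 hours before reading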
[4] = system: Streptococcus sp. 'group A'; experiment: Streptococcus pyogenes SK(-)GAS viability under kanamycin – luminescence, BacTiterGlo, confirmation, counter-screen for streptokinase expression inhibitor project, dose response (AID 1900); assay type: functional, organism-based
[5] = Counterscreen for AddAB inhibitors: absorbance-based bacterial cell-based high throughput dose response assay for inhibitors of bacterial viability. [Related pubchem assays (depositor defined):AID435030, AID449728, AID449731, AID488942, AID488955, AID488956]; assay type: functional
Streptococcus = experiment: GAS UMAA2166 growth inhibition – luminescence, BacTiterGlo, counter-screen for streptokinase expression inhibitor project, dose response (AID 1915); assay type: functional, organism-based;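 further: potency for reduction of bacterial viability or growth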
[6] = target: T3, Neuropeptides B/W receptor type 1 (Homo sapiens, UniProt P48145); experiment: human NPBW1 receptor blockade, IC50 – cell-based, fluorescence, dose response, late-stage follow-up (AID 463251); assay type: functional
T3 sequence (P48145 whole entry): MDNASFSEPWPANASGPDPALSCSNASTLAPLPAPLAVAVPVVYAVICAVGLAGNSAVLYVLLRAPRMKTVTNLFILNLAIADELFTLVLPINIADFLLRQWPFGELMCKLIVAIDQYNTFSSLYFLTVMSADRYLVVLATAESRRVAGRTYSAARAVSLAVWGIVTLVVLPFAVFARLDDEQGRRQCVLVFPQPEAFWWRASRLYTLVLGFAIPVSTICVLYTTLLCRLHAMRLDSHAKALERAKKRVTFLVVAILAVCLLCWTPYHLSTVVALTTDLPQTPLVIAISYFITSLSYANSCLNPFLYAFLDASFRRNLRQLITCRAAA

Chain of NACHT, LRR and PYD domains-containing protein 3 (Q96P20 whole entry, the tested form may be a part): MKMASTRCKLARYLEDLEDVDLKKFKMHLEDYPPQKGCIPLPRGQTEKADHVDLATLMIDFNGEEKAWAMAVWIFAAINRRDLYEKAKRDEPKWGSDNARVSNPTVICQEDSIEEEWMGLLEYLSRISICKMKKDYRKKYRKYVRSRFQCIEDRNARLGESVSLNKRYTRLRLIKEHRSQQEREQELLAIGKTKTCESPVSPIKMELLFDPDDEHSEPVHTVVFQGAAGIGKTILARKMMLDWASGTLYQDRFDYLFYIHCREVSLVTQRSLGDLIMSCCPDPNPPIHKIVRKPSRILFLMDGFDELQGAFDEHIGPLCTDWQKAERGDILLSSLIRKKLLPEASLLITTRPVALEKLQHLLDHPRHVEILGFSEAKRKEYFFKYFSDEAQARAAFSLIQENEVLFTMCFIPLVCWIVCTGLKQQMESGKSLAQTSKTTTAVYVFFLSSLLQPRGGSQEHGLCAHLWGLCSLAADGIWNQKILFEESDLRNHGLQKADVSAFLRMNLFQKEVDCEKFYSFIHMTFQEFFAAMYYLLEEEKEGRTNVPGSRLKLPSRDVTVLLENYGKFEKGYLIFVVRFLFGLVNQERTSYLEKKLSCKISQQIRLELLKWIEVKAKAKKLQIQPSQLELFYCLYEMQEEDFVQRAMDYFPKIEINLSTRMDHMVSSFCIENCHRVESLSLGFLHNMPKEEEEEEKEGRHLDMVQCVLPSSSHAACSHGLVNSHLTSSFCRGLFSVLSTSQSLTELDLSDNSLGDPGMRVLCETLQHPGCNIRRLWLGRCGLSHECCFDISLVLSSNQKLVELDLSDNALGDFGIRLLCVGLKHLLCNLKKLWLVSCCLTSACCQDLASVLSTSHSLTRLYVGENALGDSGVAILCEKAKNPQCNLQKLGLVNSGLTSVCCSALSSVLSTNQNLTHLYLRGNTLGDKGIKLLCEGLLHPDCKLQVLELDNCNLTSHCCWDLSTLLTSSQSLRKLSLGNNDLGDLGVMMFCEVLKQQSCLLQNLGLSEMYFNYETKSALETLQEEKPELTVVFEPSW

| Compound | IC50 [1] | EC50 (Streptokinase A) | EC50 [2] | AC50 (INS1) | IC50 (Exodeoxyribonuclease V) | EC50 [3] | EC50 [4] | IC50 [5] | EC50 (Streptococcus) | IC50 [6] |
| --- | --- | --- | --- | --- | --- | --- | --- | --- | --- | --- |
| N#Cc1ccc(NC(=O)Nc2ccc(Cl)cc2)cc1 | 3.53 µM (active) | > 150 µM (not active) | 2.67 µM (active) | 4 µM (active) | > 119 µM (inactive) | 7.48 µM (active) | 31.4 µM (active) | > 119 µM (inactive) | > 150 µM (not active) | – |
| COc1ccc(Oc2c(C)cnn(-c3ccccc3)c2=O)cc1 | – | – | – | – | – | – | – | – | – | > 20 µM (inactive) |
